Source: patent US12312308B2, “Salts and esters of APX3330 and therapeutic uses thereof” (Opus Genetics, Inc., priority 2022, dated 2025)
Where a name gives a salt, the structure may show the parent alone.

Assay: Dynamic vapor sorption (DVS) analysis
Format: physicochemical

CCCCCCCCC/C(=C\C1=C(C)C(=O)C(OC)=C(OC)C1=O)C(=O)O [Compound 1 calcium salt]
maximum water adsorption (DVS, at 82% RH): about 1.52%
water retained at the end of the desorption branch (DVS, end of desorption branch): 0.19%
crystalline form after DVS (subsequent XRPD analysis) (post-DVS sample vs pre-DVS sample, XRPD): maintained the same crystalline form
